Test results taken from patent US20120270935A1, “FORMULATIONS” (priority 2009, published 2012).
In brackets after ≈: the same amount, converted by molar mass. Read-outs that look alike come from different tables or passages of the source.

Assays:
P. acnes NCTC 737 [1] = assay: Supplemented disc diffusion assay (lipid or salt); type: cell-based, Propionibacterium acnes; conditions: 200 μg compound per disc; for zone of inhibition at 200 µg/disc: Cutibacterium acnes, NCTC737
Description: (§1) A sterile paper disc was impregnated with a sample of the test compound in a suitable solvent and 30 minutes allowed for the solvents to evaporate (where possible). The disc was then placed on an agar plate onto which the test micro-organism had been inoculated. The plate was then incubated under the conditions described above, following which it was examined visually for signs of microbial growth. If the test compound had antimicrobial activity, a circular zone of no growth would be obtained around the disc. The diameter of this zone of “inhibition” was measured using a ProtoCOL™ automated zone sizer (Synbiosis, Cambridge, UK). In general, a greater diameter and/or area of the zone of inhibition indicates a greater antimicrobial activity in the relevant test compound, although other factors such as test compound mobility through the agar gel may also influence the result.
The DDA test may be carried out using an agar gel supplemented with lipid and/or salt to simulate some of the major components present in human skin and to assess whether these substances might affect the antimicrobial activity observed for the test compound. Performance under these conditions can provide a more reliable indication of activity on topical application. […]
(§2) The compounds copper (II) usnate (Just for Today Ltd), sodium usnate (Yick-Vic Chemicals) and usnic acid (Sigma-Aldrich) were tested against P. acnes NCTC 737, using MIC, MBC and DDA assays as described above. For copper usnate and usnic acid, supplemented DDA assays were also carried out. DMSO was used as the solvent for all three test compounds. For the DDAs, 200 μg of the relevant test compound was loaded onto each disc. The MIC and MBC assays were conducted in triplicate, as were the DDAs for copper usnate.

P. acnes NCTC 737 [2] = assay: Disc diffusion assay (DDA); type: cell-based, Propionibacterium acnes; conditions: 200 μg compound per disc, DMSO
Description: (§3) The first test micro-organism used was Propionibacterium acnes NCTC 737. This is a propionibacterial strain and is the type strain of the […]; it is fully susceptible to antibiotics.
(§4) The propionibacteria were cultured and maintained on Wilkins-Chalgren Anaerobe Medium (agar and broth) at pH 6.0; all cultures were incubated anaerobically at 37° C. for 72 hours.
This is an internationally recognised standard method for qualitatively assessing the antimicrobial activity of a compound.
as §1
DDA assays, as described above, were carried out using as the test formulation the gel prepared in Example 2B above. Also tested was the Example 2B gel minus the Klucel™ thickener, which was also subjected to MIC and MBC assays. For the DDAs, which were performed in triplicate, 100 μl of the relevant formulation was loaded onto each disc, and zones of inhibition were recorded after 3 days' anaerobic incubation at 37° C. The MIC and MBC tests were performed in duplicate and the results recorded after 3 days and 7 days respectively, post-subculture onto drug-free medium. […]

P. acnes NCTC 737 [3] = assay: Minimum bactericidal concentration (MBC) assay; type: cell-based, Propionibacterium acnes; conditions: compound in DMSO, triplicate
Description: as §3, §4
(§5) This assay, normally carried out after an MIC assay, determines the minimum concentration of a compound that is lethal to the micro-organism being tested.
These samples were then individually sub-cultured on antibiotic-free agar medium, under the incubation conditions described above. Following incubation they were examined visually for microbial growth.
DDA assays, as described above, were carried out using as the test formulation the gel prepared in Example 2B above. Also tested was the Example 2B gel minus the Klucel™ thickener, which was also subjected to MIC and MBC assays. For the DDAs, which were performed in triplicate, 100 μl of the relevant formulation was loaded onto each disc, and zones of inhibition were recorded after 3 days' anaerobic incubation at 37° C. The MIC and MBC tests were performed in duplicate and the results recorded after 3 days and 7 days respectively, post-subculture onto drug-free medium.
as §2

C. striatum NCTC 764 [4] = assay: MBC assay; type: cell-based, Corynebacterium striatum; conditions: triplicate
Text: (§6) (a) staphylococci. The Staphylococcus aureus strain used was ATCC 29213. S. aureus and other staphylococci are common causes of a wide range of skin, skin structure and wound infections; S. aureus is also known to exacerbate eczema. The ATCC 29213 strain is known to be susceptible to beta-lactam antibiotics such as methicillin. The Staphylococcus epidermidis strain used was NCTC 11047. Staph. epidermidis forms part of the resident flora of skin and is an opportunistic pathogen which can cause biofilms to grow for instance on plastic surgical implants such as catheters. Unless otherwise stated, the staphylococci were cultured and maintained on Mueller-Hinton Medium (agar and broth) at pH 7.2; cultures were incubated aerobically at 37° C. for 19-20 hours, at pH 7 (±0.2). (b) C. striatum NCTC 764. Corynebacterium striatum is closely related to organisms (aerobic diphtheroids of the genus Corynebacterium) that cause body odour. It was cultured and maintained on Mueller-Hinton medium (agar and broth). All cultures were incubated aerobically at 37° C. for 72 hours, at pH 7 (±0.2). (c) streptococci. The strains tested were S. mutans ATCC 25175 and S. pyogenes ATCC 12344. S. mutans is a Gram-positive, microaerophilic bacterium which plays a significant role in dental caries and in infective endocarditis. Streptococcus pyogenes is associated with skin, soft tissue, burn and wound infections. S. mutans was cultured and maintained on Wilkins-Chalgren Anaerobe medium+1 g/L glucose (agar and broth); it was incubated in air at 37° C. for 48 hours, at pH 7 (±0.2) with 5% carbon dioxide. S. pyogenes was cultured and maintained on Mueller-Hinton medium (broth and agar) and was incubated under the same conditions as S. mutans.
as §5
These samples were then individually sub-cultured on antibiotic-free agar medium, under the incubation conditions described above. Following incubation they were examined visually for microbial growth. […]

S. aureus ATCC 29213 = assay: MIC assay; type: cell-based, Staphylococcus aureus; conditions: Mueller-Hinton broth pH 7.0
Text: as §6, with “Streptococcus pyogenes is associated with skin, soft tissue, burn and wound infections. S. mutans was cultured and maintained on Wilkins-Chalgren Anaerobe medium+1 g/L glucose (agar and broth); it was incubated in air at 37° C. for 48 hours, at pH 7 (±0.2) with 5% carbon dioxide. S. pyogenes was cultured and maintained on Mueller-Hinton medium (broth and agar) and was incubated under the same conditions as S. mutans.” left out
(§7) This is a standard international method for quantitatively assessing the antimicrobial activity of a compound in a liquid medium. […]
(§8) The wells were inoculated with a liquid suspension of freshly grown micro-organism and incubated under the conditions described above. […] The MIC value was recorded as the lowest concentration of test compound required to inhibit microbial growth, ie the lowest concentration for which the liquid in the well remained clear. […]
Example 8 was repeated (except for the supplemented DDA assays), using S. aureus ATCC 29213 as the test organism. […] In the DDA assays, 200 μg is of each compound was loaded onto each disc: the culture medium was Mueller-Hinton agar at pH 7.0, and results were recorded after overnight incubation at 37° C. in air. […]

C. striatum NCTC 764 [5] = assay: MIC assay; type: cell-based, Corynebacterium striatum; conditions: triplicate
Text: as §6, with “S. pyogenes was cultured and maintained on Mueller-Hinton medium (broth and agar) and was incubated under the same conditions as S. mutans.” left out
as §7, §8

| Compound | DDA zone diameter, +1% NaCl (P. acnes NCTC 737 [1]; medium +1% NaCl) [mm] | DDA zone diameter, +1% triolein (P. acnes NCTC 737 [1]; medium +1% triolein) [mm] | DDA zone diameter, unsupplemented medium (P. acnes NCTC 737 [2]) [mm] | MBC (P. acnes NCTC 737 [3]) [µg/mL] | MBC (C. striatum NCTC 764 [4]) [µg/mL] | MIC (S. aureus ATCC 29213) [µg/mL] | MIC (C. striatum NCTC 764 [5]) [µg/mL] | zone of inhibition at 200 µg/disc (P. acnes NCTC 737 [1]; medium +1% NaCl, read-out: DDA zone diameter, +1% NaCl) [mm] | zone of inhibition at 200 µg/disc (P. acnes NCTC 737 [1]; medium +1% triolein, read-out: DDA zone diameter, +1% triolein) [mm] | zone of inhibition at 200 µg/disc (P. acnes NCTC 737 [2]; Cutibacterium acnes, NCTC737, read-out: DDA zone diameter, unsupplemented medium) [mm] | MBC (P. acnes NCTC 737 [3]; Cutibacterium acnes, NCTC737, read-out: MBC) [µg/mL] | MBC (C. striatum NCTC 764 [4]; Corynebacterium striatum, NCTC764, read-out: MBC) [µg/mL] | MIC (S. aureus ATCC 29213; Staphylococcus aureus, ATCC29213, read-out: MIC) [µg/mL] | MIC (C. striatum NCTC 764 [5]; Corynebacterium striatum, NCTC764, read-out: MIC) [µg/mL] |
| --- | --- | --- | --- | --- | --- | --- | --- | --- | --- | --- | --- | --- | --- | --- |
| CC(=O)c1c([O-])c(C)c([O-])c2c1OC1=CC(=O)C(C(C)=O)C(=O)C12C.[Cu+2] (centres unmarked) [Copper usnate, copper (II) usnate] | 42.9 ± 0.4 | 27.4 ± 1.5 | 46.7 ± 0.4 | 1.95 | 62.5 | 7.8 | 3.9 | – | – | – | – | – | – | – |
| CC(=O)c1c(O)c(C)c(O)c2c1OC1=CC(=O)C(C(C)=O)C(=O)C12C (centres unmarked) [Usnic acid, 2,6-diacetyl-7,9-dihydroxy-8,9b-dimethyl-1,3(2H,9bh)-dibenzofurandione] | – | – | – | – | – | – | – | 29.8 | 10.9 | 23.9 | 31.2 (≈ 90.8 µM) | 62.5 (≈ 182 µM) | 31.2 (≈ 90.8 µM) | 7.8 (≈ 22.7 µM) |
